Experimental data as given in patent US7671056B2, “Piperazine-piperidine antagonists and agonists of the 5-HT1A receptor” (Wyeth LLC, priority 2005, dated 2010).
Where two headings read alike, the source gives them in different places.

Legend:
[1] = biological target: T1, human 5-HT1A receptor (Homo sapiens, UniProt P08908); assay: Radioligand binding with [3H]8-OH-DPAT on membranes of 5-HT1A.CHO cells
T1 construct: expressed in transfected cells
T1 sequence (P08908 1-422): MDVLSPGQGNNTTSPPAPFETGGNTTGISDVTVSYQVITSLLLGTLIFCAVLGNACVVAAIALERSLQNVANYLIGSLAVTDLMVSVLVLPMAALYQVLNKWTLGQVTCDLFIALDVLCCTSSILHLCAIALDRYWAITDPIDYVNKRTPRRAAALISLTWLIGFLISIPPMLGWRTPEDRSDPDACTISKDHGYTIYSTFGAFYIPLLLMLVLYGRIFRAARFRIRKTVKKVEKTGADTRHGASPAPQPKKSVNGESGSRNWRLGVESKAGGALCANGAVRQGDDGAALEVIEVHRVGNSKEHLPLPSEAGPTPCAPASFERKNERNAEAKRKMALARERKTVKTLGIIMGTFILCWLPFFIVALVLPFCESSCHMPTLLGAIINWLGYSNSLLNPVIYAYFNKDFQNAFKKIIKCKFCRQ
Procedure: The PCR cloning of the human 5-HT1A receptor subtype from a human genomic library has been described previously (Chanda et al., Mol. Pharmacol., 43:516 (1993)). A stable Chinese hamster ovary cell line expressing the human 5-HT1A receptor subtype (5-HT1A.CHO cells) was employed throughout this study. Cells were maintained in DMEM supplemented with 10% fetal calf serum, non-essential amino acids and penicillin/streptomycin. Radioligand binding assays were performed as described in Dunlop, J. et al., J. Pharmacol. and Toxicol. Methods 40: 47-55 (1998), which is incorporated by reference. Cells were grown to 95-100% confluency as a monolayer before membranes were harvested for binding studies. Cells were gently scraped from the culture plates, transferred to centrifuge tubes, and washed twice by centrifugation (2000 rpm for 10 min., 4° C.) in buffer (50 mM Tris; pH 7.5). The resulting pellets were aliquoted and placed at −80° C. On the day of assay, the cells were thawed on ice, and resuspended in buffer. Studies were conducted using [^3H]8-OH-DPAT as the radioligand. The binding assay was performed in 96 well microtiter plates in a final total volume of 250 μL of buffer. Competition experiments were performed by using seven different concentrations of unlabelled drug and a final ligand concentration of 1.5 nM. Non-specific binding was determined in the presence of 10 μM 5HT. Saturation analysis was conducted by using [^3H]8-OH-DPAT at concentrations ranging from 0.3-30 nM. Following a 30 minute incubation at room temperature, the reaction was terminated by the addition of ice cold buffer and rapid filtration using a M-96 Brandel Cell Harvester (Gaithersburg, Md.) through a GF/B filter presoaked for 30 minutes in 0.5% polyethyleneimine. Table 1 provides Ki values for the tested compounds.

[2] = biological target: T1, human 5-HT1A receptor; assay: cAMP measurements, antagonist mode: block of 8-OH-DPAT-induced inhibition of forskolin-stimulated cAMP; format: cell-based
Procedure: The PCR cloning of the human 5-HT1A receptor subtype from a human genomic library has been described previously (Chanda et al., Mol. Pharmacol., 43:516 (1993)). A stable Chinese hamster ovary cell line expressing the human 5-HT1A receptor subtype (5-HT1A.CHO cells) was employed throughout this study. Cells were maintained in DMEM supplemented with 10% fetal calf serum, non-essential amino acids and penicillin/streptomycin. Measurements were performed as described in Dunlop, J. et al., supra. Assays were performed by incubating the cells with DMEM containing 25 mM HEPES, 5 mM theophylline and 10 μM pargyline for a period of 20 minutes at 37° C. […] The reaction was terminated by removal of the media and addition of 0.5 ml ice cold assay buffer. Plates were stored at −20° C. prior to assessment of cAMP formation by a cAMP SPA assay (Amersham). Compounds of the invention were tested according to the protocol described. […] Compounds having 5-HT1A antagonist activity show no effect on forskolin-induced increases in cAMP levels on their own, but block the 8-OH-DPAT-induced inhibition of forskolin-stimulated increases in cAMP levels. Results are required as IC50 values (Table 1, “Antagonist Activity IC50”)

[3] = biological target: T1, human 5-HT1A receptor; assay: cAMP measurements, agonist mode: inhibition of forskolin-induced increase in cAMP; format: cell-based; details: forskolin 1 uM, 5-HT1A.CHO cells
Procedure: The PCR cloning of the human 5-HT1A receptor subtype from a human genomic library has been described previously (Chanda et al., Mol. Pharmacol., 43:516 (1993)). A stable Chinese hamster ovary cell line expressing the human 5-HT1A receptor subtype (5-HT1A.CHO cells) was employed throughout this study. Cells were maintained in DMEM supplemented with 10% fetal calf serum, non-essential amino acids and penicillin/streptomycin.
Measurements were performed as described in Dunlop, J. et al., supra. Assays were performed by incubating the cells with DMEM containing 25 mM HEPES, 5 mM theophylline and 10 μM pargyline for a period of 20 minutes at 37° C. Functional activity was assessed by treating the cells with forskolin (1 uM final concentration) followed immediately by test compound (6 different concentrations) for an additional 10 minutes at 37° C. In separate experiments, 6 concentrations of antagonist were preincubated for 20 min prior to the addition of 10 nM 8-OH-DPAT and forskolin. The reaction was terminated by removal of the media and addition of 0.5 ml ice cold assay buffer. Plates were stored at −20° C. prior to assessment of cAMP formation by a cAMP SPA assay (Amersham). […]

[4] = [3H]8-OH-DPAT 1.5 nM, 5-HT1A.CHO cell membranes, read-out: 5-HT1A Affinity Ki
[5] = 10 nM 8-OH-DPAT and forskolin, 5-HT1A.CHO cells, read-out: Antagonist Activity IC50

| Compound | Ki [1, 4] | IC50 [2, 5] | EC50 [3] | IC50 [2] | Ki [1] |
| --- | --- | --- | --- | --- | --- |
| COc1cc(N2CCN(C3CCN(c4c(F)ccc5cccnc45)CC3)CC2)c2ncccc2c1 [J, 8-{4-[1-(7-Fluoroquinolin-8-yl)piperidin-4-yl]piperazin-1-yl}-6-methoxyquinoline] | 0.61 nM | 9.95 nM | – | – | – |
| Fc1cc(N2CCN(C3CCN(c4cccc5cccnc45)CC3)CC2)c2ncccc2c1 [B, 6-fluoro-8-{4-[1-(8-quinolinyl)-4-piperidinyl]-1-piperazinyl}quinoline] | 0.46 nM | 25 nM | – | – | – |
| COc1cc(N2CCN(C3CCN(c4cccc5cccnc45)CC3)CC2)c2ncccc2c1 [A, 6-Methoxy-8-{4-[1-(8-quinolinyl)-4-piperidinyl]-1-piperazinyl}quinoline] | 0.4 nM | 3.86 nM | – | – | – |
| COc1cc(N2CCN(C3CCN(Cc4cccc5cccnc45)CC3)CC2)c2ncccc2c1 [M, 6-Methoxy-8-{4-[1-(quinolin-8-ylmethyl)piperidin-4-yl]piperazin-1-yl}quinoline] | 75.7 nM | 176 nM | – | – | – |
| c1cnc2c(N3CCC(N4CCN(c5cccc6cccnc56)CC4)CC3)cccc2c1 [Example 3, 8-{4-[1-(8-quinolinyl)-4-piperidinyl]-1-piperazinyl}quinoline] | 0.4 nM | – | 10 nM | – | – |
| COc1ccccc1N1CCN(C2CCN(c3csc4ccccc34)CC2)CC1 [G, 1-[1-(1-benzothien-3-yl)-4-piperidinyl]-4-(2-methoxyphenyl)piperazine] | 26.7 nM | – | 22 nM | – | – |
| Cc1ccc2cccc(N3CCN(C4CCN(c5cccc6cccnc56)CC4)CC3)c2n1 [Example 10, 2-methyl-8-{4-[1-(8-quinolinyl)-4-piperidinyl]-1-piperazinyl}quinoline] | 0.83 nM | – | 3.28 nM | – | – |
| Fc1cc(N2CCN(C3CCN(c4cc(Cl)cc5cccnc45)CC3)CC2)c2ncccc2c1 [Example 5, 8-{4-[1-(6-chloro-8-quinolinyl)-4-piperidinyl]-1-piperazinyl}-6-fluoroquinoline] | 106 nM | – | – | – | – |
| c1cnc2c(N3CCC(N4CCN(c5cccc6[nH]ccc56)CC4)CC3)cccc2c1 [D, 8-{4-[4-(1H-indole-4-yl)-1-piperazinyl]-1-piperidinyl}quinoline] | 0.59 nM | – | – | 24 nM | – |
| Fc1cc(N2CCN(C3CCN(c4ccc5cccnc5c4F)CC3)CC2)c2ncccc2c1 [K, 6-Fluoro-8-{4-[1-(8-fluoroquinolin-7-yl)piperidin-4-yl]piperazin-1-yl}quinoline] | 0.27 nM | – | 0.83 nM | – | – |
| c1cc2c(c(N3CCN(C4CCN(c5cccc6cccnc56)CC4)CC3)c1)OCCO2 [E, 8-{4-[4-(2,3-dihydro-1,4-benzo[1,4]dioxane-5-yl)-1-piperazinyl]-1-piperidinyl}quinoline] | 0.38 nM | – | 2.4 nM | – | – |
| Clc1cc(N2CCC(N3CCN(c4cc(Cl)cc5cccnc45)CC3)CC2)c2ncccc2c1 [Example 4, 6-chloro-8-{4-[4-(6-chloro-8-quinolinyl)-1-piperazinyl]-1-piperidinyl}quinoline] | 500 nM | – | – | – | – |
| COc1ccccc1N1CCN(C2CCN(c3noc4ccccc34)CC2)CC1 [H, 3-{4-[4-(2-methoxyphenyl)-1-piperazinyl]-1-piperidinyl}-1,2-benzisoxazole] | 1.45 nM | – | 2.53 nM | – | – |
| COc1cc(N2CCN(C3CCN(c4ccc(F)c5c(OC)cc(C(F)(F)F)nc45)CC3)CC2)c2ncccc2c1 [N, 5-fluoro-4-methoxy-8-(4-(4-(6-methoxyquinolin-8-yl)piperazin-1-yl)piperidin-1-yl)-2-(trifluoromethyl)quinoline] | – | – | – | 9.2 nM | 2.02 nM |
| FC(F)(F)c1ccc(N2CCN(C3CCN(c4cccc5cccnc45)CC3)CC2)c2ncccc12 [Example 12, 8-{4-[1-(8-quinolinyl)-4-piperidinyl]-1-piperazinyl}-5-(trifluoromethyl)quinoline] | 3.04 nM | 35.5 nM | – | – | – |
| COc1ccc(N2CCN(C3CCN(c4cccc5cccnc45)CC3)CC2)c2ncccc12 [Example 14, 5-Methoxy-8-{4-[1-(8-quinolinyl)-4-piperidinyl]-1-piperazinyl}-quinoline] | 1.45 nM | 64.5 nM | – | – | – |
| COc1cc(N2CCN(C3CCN(c4ccc(F)c5cccnc45)CC3)CC2)c2ncccc2c1 [P, 5-Fluoro-8-(4-(4-(6-methoxyquinolin-8-yl)piperazin-1-yl)piperidin-1-yl)-quinoline] | – | 3.7 nM | – | – | – |
| Clc1cc(N2CCC(N3CCN(c4coc5ccccc45)CC3)CC2)c2ncccc2c1 [Example 16, 8-{4-[4-(1-Benzofuran-3-yl)-1-piperazinyl]-1-piperidinyl}-6-chloroquinoline] | 148 nM | 1080 nM | – | – | – |
| Fc1ccc(N2CCC(N3CCN(c4cccc5cccnc45)CC3)CC2)c2ncccc12 [C, 5-fluoro-8-{4-[4-(8-quinolinyl)-1-piperazinyl]-1-piperidinyl}-quinoline] | 0.24 nM | – | 6.85 nM | – | – |
| Clc1ccc(N2CCN(C3CCN(c4cccc5cccnc45)CC3)CC2)c2ncccc12 [Example 8, 5-chloro-8-{4-[1-(8-quinolinyl)-4-piperidinyl]-1-piperazinyl}quinoline] | 0.31 nM | – | 20 nM | – | – |
| Clc1cc(N2CCN(C3CCN(c4cccc5cccnc45)CC3)CC2)c2ncccc2c1 [Example 11, 6-chloro-8-{4-[1-(8-quinolinyl)-4-piperidinyl]-1-piperazinyl}quinoline] | 0.48 nM | – | 3.84 nM | – | – |
| Fc1ccc(N2CCN(C3CCN(c4cccc5cccnc45)CC3)CC2)c2ncccc12 [Example 15] | 0.15 nM | 23.5 nM | – | – | – |
| Clc1cc(N2CCC(N3CCN(c4cccc5[nH]ccc45)CC3)CC2)c2ncccc2c1 [I, 6-Chloro-8-{4-[4-(1H-indole-4-yl)-1-piperazinyl]-1-piperidinyl}quinoline] | – | – | – | – | 40.8 nM |
| Fc1ccc2occ(N3CCN(C4CCN(c5ccc(F)c6cccnc56)CC4)CC3)c2c1 [F, 5-fluoro-8-{4-[4-(5-fluoro-1-benzofuran-3-yl)-1-piperazinyl]-1-piperidinyl}quinoline] | 1.69 nM | 10.8 nM | – | – | – |
| COc1cc(N2CCN(C3CCN(c4cccc5cc(C(F)(F)F)cnc45)CC3)CC2)c2ncccc2c1 [L, 8-{4-[4-(6-Methoxyquinolin-8-yl)piperazin-1-yl]piperidin-1-yl}-3-(trifluoromethyl)quinoline] | 1.2 nM | – | 29.5 nM | – | – |
